Measurements from PubChem BioAssay (NCI).
Where “and” joins values, the source holds several entries; their conditions need not be identical. Equal entries are not always repeated.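 1) Cells in 96-well plates. 2) Compound, 48 h, 5 concentrations. 3) Linear interpolation between surrounding doses. 4) Unreached endpoint = highest concentration. GI50: concentration for 50% inhibition of growth. TGI marks complete inhibition of growth.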

Columns and labels:
Test in all cases: inhibition of tumour cell growth, NCI panel, 48 h
MALME-3M melanoma = system: MALME-3M melanoma
SN12C renal = system: SN12C renal
786-0 renal = system: 786-0 renal
HCT-15 colon = system: HCT-15 colon
HCC-2998 colon = system: HCC-2998 colon
SNB-19 CNS = system: SNB-19 CNS
OVCAR-3 ovarian = system: OVCAR-3 ovarian
HT29 colon = system: HT29 colon
A498 renal = system: A498 renal
UO-31 renal = system: UO-31 renal

SMILES	TGI (MALME-3M melanoma)	TGI (SN12C renal) [µM]	TGI (786-0 renal)	TGI (HCT-15 colon)	TGI (HCC-2998 colon)	TGI (SNB-19 CNS) [µM]	TGI (OVCAR-3 ovarian)	TGI (HT29 colon)	TGI (A498 renal)	TGI (UO-31 renal)	GI50 (MALME-3M melanoma)	GI50 (SN12C renal)	GI50 (786-0 renal)	GI50 (HCT-15 colon)	GI50 (HCC-2998 colon)	GI50 (SNB-19 CNS)	GI50 (OVCAR-3 ovarian)	GI50 (A498 renal) [µM]	GI50 (UO-31 renal)	GI50 (HT29 colon)
COc1cc(/C=C(\C#N)C(=O)c2ccccc2)ccc1O	> 100 µM	> 100	> 100 µM	> 100 µM	> 100 µM	> 100	> 100 µM	> 100 µM	> 100 µM	> 100 µM										
COC1CC2CCC(C)C(O)(O2)C(=O)C(=O)N2CCCCC2C(=O)OC(C(C)CC2CCC(O)C(OC)C2)CC(=O)C(C)C=C(C)C(O)C(OC)C(=O)C(C)CC(C)/C=C/C=C/C=C1C (stereo not given)	8.36 µM	14.6	17.3 µM	14.7 µM	11.4 µM	17	10.9 µM	10.8 µM	6.86 µM	8.08 µM	< 0.005 µM	5.24 µM	5.48 µM	0.0813 µM	0.263 µM	1.45 µM	4.49 µM	< 0.005	< 0.005 µM	
COC(=O)C1=C(C(=O)ON)C2C=CC1(C(Cc1ccccc1)Nc1ccccc1)O2 (stereo not given)	3.33 µM	4.45	3.26 µM	3.5 µM	32.3 µM	27.9	3.11 µM	3.42 µM	27.9 µM	2.8 µM	1.76 µM	1.99 µM	1.76 µM	1.73 µM	16.9 µM	14.8 µM	1.72 µM	14.7	1.47 µM	1.79 µM
COc1cc(C)c(Cl)cc1C1=NN(c2ccc(S(N)(=O)=O)cc2)C(/C=C/c2ccccc2)C1 (stereo not given)	9.98 µM	7.03	11.9 µM	> 100 µM	8.49 µM	> 100	6.46 µM	4.07 µM	5.71 µM	12.6 µM	2.68 µM	2.68 µM	3.67 µM	3.11 µM	2.57 µM	8.08 µM	2.61 µM	2.67	2.54 µM	1.8 µM
COC(=O)C(=O)OC1(C(C)=O)CC2(c3ccccc3)OC1(c1ccccc1)c1ccccc12 (stereo not given)	35.2 µM	28.6	26.9 µM	34.1 µM	31.4 µM	47.3	27.9 µM	30.7 µM	33.4 µM	29.9 µM										
COc1ncc(-c2ccc3nccc(-c4ccnnc4)c3c2)cc1NS(=O)(=O)c1ccc(F)cc1F	0.114 µM and 0.0222 µM	> 100	0.0791 µM and 0.106 µM	> 4.83 µM and 5.11 µM	0.275 µM and 0.572 µM		0.763 µM and 0.376 µM	> 10 µM and 4.25 µM	0.00826 µM		0.00473 µM and < 0.01 µM	0.0111 µM and < 0.01 µM	0.00651 µM and < 0.01 µM	0.00632 µM and < 0.01 µM	0.00997 µM and 0.0133 µM	0.0397 µM and 0.0127 µM	0.00901 µM and < 0.0109 µM	0.0015	0.00213 µM and < 0.01 µM	0.00325 µM and < 0.01 µM
CC1=C2C[C@H]3[C@@H](CC[C@@H]4CC(NS(C)(=O)=O)CC[C@@]43C)[C@@H]2CC[C@@]2(C1)O[C@@H]1C[C@H](C)CN[C@H]1[C@H]2C (stereo not given in full)	25.2 µM	23.4	24.2 µM	21.4 µM	28.2 µM	27	14 µM	11.3 µM	26.8 µM	23.5 µM	9.75 µM	10.4 µM	8.94 µM	5.9 µM	14.1 µM	12.5 µM	4 µM	13.2	10.7 µM	3.5 µM
CCOC(=O)c1[nH]c(Br)c(-c2ccc(Br)cc2)c1Br	15.8 µM	4.75	1.92 µM and 2.72 µM	> 100 µM	> 100 µM	10.4	0.759 µM and 1.61 µM	1.32 µM and 1.62 µM	5.28 µM and 1.22 µM	5.71 µM and 8.57 µM	0.46 µM	0.502 µM	0.535 µM	0.25 µM	11.6 µM	0.454 µM	0.37 µM	0.288	1.13 µM	
COC(=O)c1c2c(c(C)[n+]([O-])c1C)C(=O)C=C(NCc1ccc(F)c(Cl)c1)C2=O	0.332 µM	1.28	3.6 µM	1.63 µM	1.41 µM	2.07	0.628 µM	2.15 µM	2.05 µM	2.37 µM	0.149 µM	0.31 µM	1.13 µM	0.0855 µM	0.187 µM	0.801 µM	0.201 µM	0.437	1.05 µM	0.243 µM
BrC1=CC=C2NC=CC3=CC=NC1C32 (stereo not given)	67.1 µM	> 100	> 100 µM	> 100 µM	> 100 µM	> 75	80.6 µM	> 66.2 µM	85.4 µM	51.3 µM										
Cc1ccccc1C(=O)c1ccccc1O	> 100 µM	> 100	> 100 µM	> 100 µM	> 100 µM	> 100	> 100 µM	> 100 µM	> 100 µM	> 100 µM										
C#CCC(Cc1cnc2nc(N)nc(N)c2n1)c1ccc(C(=O)N[C@@H](CCC(=O)O)C(=O)O)cc1 (stereo not given in full)	> 100 µM	> 100	> 100 µM	> 100 µM	> 100 µM	> 100	> 100 µM	> 100 µM	> 100 µM	> 100 µM	> 44 µM	< 0.01 µM	< 0.01 µM	< 0.01 µM	0.0103 µM	< 0.0131 µM	< 0.0135 µM	> 100	< 0.01 µM	< 0.01 µM
Cn1c(=O)nc2n(-c3cccc(Br)c3)c3ccccc3nc-2c1=O	6.46 µM	17.1	16.7 µM	15.1 µM	9.59 µM	6.86	5.94 µM		22.1 µM	26.3 µM										
N#Cc1nc2c(S(=O)(=O)c3ccccc3)c(N)n(Cc3cccnc3)c2nc1C#N	27.3 µM	> 100	79.3 µM	> 100 µM	> 100 µM	72.4	> 100 µM	> 100 µM	55.5 µM	> 100 µM	3.7 µM	26.6 µM	22.2 µM	> 100 µM	> 100 µM	21.9 µM	3.48 µM	17.2	13.5 µM	> 100 µM
